Calls of active or inactive are those of the source.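 Rule for the calls: active = half-maximal dose of signal decrease from fit no higher than ten times the top valid tested dose; inconclusive = fit invalid, or curve flat with 30 to 70% inhibition; inactive = the rest.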
Biological target: Lysine-specific demethylase 4A (Homo sapiens) (UniProt O75164)
Assay: JMJD2A histone demethylase inhibitors, dose response, selectivity assay for GASC-1 inhibitor project, biochemical, DELFIA europium, cherry-picked samples (AID 488840);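 note: europium signal reports the dimethyl H3K9 product detected by antibody so inhibitors lower it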
Details: GST-JMJD2A(1-420) H3K9me3 demethylation

Lysine-specific demethylase 4A (Homo sapiens), sequence (O75164 whole entry, looked up): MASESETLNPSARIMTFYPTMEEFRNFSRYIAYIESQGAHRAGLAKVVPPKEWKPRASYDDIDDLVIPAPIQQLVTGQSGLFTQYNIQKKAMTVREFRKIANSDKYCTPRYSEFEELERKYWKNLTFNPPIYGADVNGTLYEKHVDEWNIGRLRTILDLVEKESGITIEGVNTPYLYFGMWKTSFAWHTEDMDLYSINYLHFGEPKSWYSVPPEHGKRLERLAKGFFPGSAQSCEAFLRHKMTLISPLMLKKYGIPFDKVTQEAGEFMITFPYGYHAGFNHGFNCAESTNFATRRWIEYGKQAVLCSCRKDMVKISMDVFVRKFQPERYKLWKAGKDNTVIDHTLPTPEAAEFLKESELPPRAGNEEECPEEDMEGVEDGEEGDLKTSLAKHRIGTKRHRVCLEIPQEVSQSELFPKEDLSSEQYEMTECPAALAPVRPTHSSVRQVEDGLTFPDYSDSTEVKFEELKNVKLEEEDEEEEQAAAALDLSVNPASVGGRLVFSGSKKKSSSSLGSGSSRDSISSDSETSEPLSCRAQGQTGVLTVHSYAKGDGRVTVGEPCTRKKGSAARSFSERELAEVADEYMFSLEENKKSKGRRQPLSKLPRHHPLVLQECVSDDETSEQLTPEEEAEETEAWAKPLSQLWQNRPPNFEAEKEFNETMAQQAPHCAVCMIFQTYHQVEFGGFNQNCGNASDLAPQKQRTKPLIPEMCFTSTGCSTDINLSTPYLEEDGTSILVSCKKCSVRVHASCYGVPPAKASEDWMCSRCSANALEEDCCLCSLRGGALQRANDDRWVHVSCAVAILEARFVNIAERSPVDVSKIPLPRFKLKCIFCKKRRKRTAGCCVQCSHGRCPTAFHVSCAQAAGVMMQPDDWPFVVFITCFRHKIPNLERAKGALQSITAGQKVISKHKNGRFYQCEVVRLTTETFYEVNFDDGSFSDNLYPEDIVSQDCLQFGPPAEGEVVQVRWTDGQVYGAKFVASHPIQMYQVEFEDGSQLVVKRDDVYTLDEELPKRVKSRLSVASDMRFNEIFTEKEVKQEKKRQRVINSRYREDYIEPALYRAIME

CC(=O)C[C@@H](O)CC(=O)[C@H]1OC(=O)[C@H](C)CCCCc2ccccc21
AC50: > 6 µM (inactive)

— PubChem BioAssay AID488840 (Broad Institute, 2010)
